Tests used:
[1] = molecular target: T1, GTP-loaded KRAS4b (amino acids 1-169) G12C/C118S protein (Homo sapiens, UniProt P01116, C118S/G12C); assay: Covalent cysteine 12 modification by MALDI-TOF MS, GTP-loaded KRAS G12C; format: binding; settings: 15 minutes reaction time point
T1 construct: KRAS4b (amino acids 1-169) G12C/C118S protein; made in house
In short: (§1)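 Protein (1 μM) was incubated with compound at a 1:2.5 protein:compound ratio in 20 mM HEPES, 150 mM NaCl, 1 mM MgCl2, pH 7.3, at room temperature in the dark. After 15 min, samples were mixed into sinapinic acid matrix and analysed by linear-mode MALDI-TOF. Modification is adduct peak height over summed unmodified plus adduct heights.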

[2] = molecular target: T2, Avi-KRAS G12C (1-169) GppNHp/RAF1 RBD-3×FLAG (52-151) (Homo sapiens, UniProt P01116, G12C); assay: Raf1 RBD-KRAS G12C-GppNHp disruption assay (protein:protein interaction HTRF); format: biochemical
T2 construct: Avi-KRAS G12C (1-169) GppNHp; Avi (N)
In short: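 HTRF measuring RAF1 RBD binding to GppNHp-loaded KRAS G12C (50 nM) in Tris pH 7.5, 100 mM NaCl, 5 mM MgCl2, 10% DMSO. Compound, KRAS, RBD and detection reagents each added sequentially with 1 h room-temperature incubations; 10-point titration; excitation 320 nm, emission 615 nm; activity as % of DMSO; IC50 derived.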

[3] = molecular target: T3, GDP-loaded KRAS4b (amino acids 1-169) G12C/C118S protein (Homo sapiens, UniProt P01116, C118S/G12C); assay: Covalent cysteine 12 modification by MALDI-TOF MS, GDP-loaded KRAS G12C; format: binding; settings: 15 minutes reaction time point
T3 construct: KRAS4b (amino acids 1-169) G12C/C118S protein; made in house
In short: as §1

| SMILES | GTP-KRAS G12C percent of modification [1] | IC50 [2] [nM] | GDP-KRAS G12C percent of modification [3] |
| --- | --- | --- | --- |
| C=CC(=O)N1CC[C@@H](N(C)c2nc(OC[C@@]34CCCN3C[C@H](F)C4)nc3cc(-c4ccc(F)c5sc(N)c(C#N)c45)c(F)cc23)[C@H]1CC [Compound 29] | A (percent of modification ≥70%) | < 500 | A (percent of modification ≥70%) |
| C=CC(=O)N1CC[C@@H](N(C)c2nc(OC[C@@]34CCCN3C[C@H](F)C4)nc3cc(-c4ccc(F)c5sc(N)c(C#N)c45)c(F)cc23)[C@@H]1C [Compound 31] | C (10%≤percent of modification <50%) | < 500 | A (percent of modification ≥70%) |
| C=CC(=O)N1CC[C@@H](N(C)c2nc(OC[C@@H]3C[C@@H](OC)CN3C)nc3c(F)c(-c4ccc(F)c5sc(N)c(C#N)c45)c(C(F)(F)F)cc23)[C@@H]1C [Compound 33] | B (50≤percent of modification <70%) | < 500 | B (50≤percent of modification <70%) |
| C=CC(=O)N1C2CCC1CN(c1nc(OC[C@@]34CCCN3C[C@H](F)C4)nc3c(F)c(-c4ccc(F)c5sc(N)c(C#N)c45)c(C(F)(F)F)cc13)C2 [Compound 34] | D (percent of modification <10%) | < 500 | B (50≤percent of modification <70%) |
| C=CC(=O)N1C2CC1CN(c1nc(OC[C@@]34CCCN3C[C@H](F)C4)nc3c(F)c(-c4ccc(F)c5sc(N)c(C#N)c45)c(C(F)(F)F)cc13)C2 [Compound 35] | C (10%≤percent of modification <50%) | < 500 | A (percent of modification ≥70%) |
| C=CC(=O)N1C[C@H]2CC[C@@H]1CN2c1nc(OC[C@@]23CCCN2C[C@H](F)C3)nc2c(F)c(-c3ccc(F)c4sc(N)c(C#N)c34)c(C(F)(F)F)cc12 [Compound 36] | D (percent of modification <10%) | 500 to 5000 | D (percent of modification <10%) |
| C=CC(=O)N1CC[C@@H](N(C)c2nc(OC[C@@H]3C[C@@H](OC)CN3CC)nc3c(F)c(-c4ccc(F)c5sc(N)c(C#N)c45)c(C(F)(F)F)cc23)[C@@H]1C [Compound 101] | B (50≤percent of modification <70%) | < 500 | A (percent of modification ≥70%) |
| C=CC(=O)N1CC[C@@H](N(C)c2nc(OC[C@@H]3C[C@@H](OC)CN3CC)nc3c(F)c(-c4ccc(F)c5sc(N)c(C#N)c45)c(C(F)(F)F)cc23)[C@H]1C [Compound 104] | A (percent of modification ≥70%) | < 500 | A (percent of modification ≥70%) |
| C=CC(=O)N1CC[C@@H](N(C)c2nc(OC[C@@H]3C[C@@H](F)CN3CC)nc3c(F)c(-c4ccc(F)c5sc(N)c(C#N)c45)c(Cl)cc23)[C@@H]1C [Compound 105] | C (10%≤percent of modification <50%) | < 500 | B (50≤percent of modification <70%) |
| C=CC(=O)N1CCN(c2nc(OC[C@@]34CCCN3C[C@H](F)C4)nc3c(F)c(-c4ccc(F)c5sc(N)c(C#N)c45)c(C(F)(F)F)cc23)C2CC21 (stereo partly drawn) [Compound 106] | C (10%≤percent of modification <50%) | < 500 | A (percent of modification ≥70%) |
| C=CC(=O)N1CC[C@@H](N(C)c2nc(OC[C@@H]3C[C@@H](F)CN3CC)nc3c(F)c(-c4ccc(F)c5sc(N)c(C#N)c45)c(C(F)(F)F)cc23)[C@H]1C [Compound 107] | A (percent of modification ≥70%) | < 500 | A (percent of modification ≥70%) |
| C=CC(=O)N1C[C@H](N(C)c2nc(OC[C@@]34CCCN3C[C@H](F)C4)nc3c(F)c(-c4ccc(F)c5sc(N)c(C#N)c45)c(C(F)(F)F)cc23)C[C@@H]1C [Compound 108] | B (50≤percent of modification <70%) | < 500 | B (50≤percent of modification <70%) |
| C=CC(=O)N1C[C@H](N(C)c2nc(OC[C@@]34CCCN3C[C@H](F)C4)nc3cc(-c4ccc(F)c5sc(N)c(C#N)c45)c(F)cc23)C[C@@H]1C [Compound 109] | C (10%≤percent of modification <50%) | < 500 | A (percent of modification ≥70%) |
| C=CC(=O)N1CC[C@@H](N(C)c2nc(OC[C@@]34CCCN3C[C@H](F)C4)nc3cc(-c4nc(N)cc(C)c4C(F)(F)F)c(F)cc23)[C@H]1C [Compound 110] | B (50≤percent of modification <70%) | < 500 | A (percent of modification ≥70%) |
| C=CC(=O)N1CC[C@@H](N(C)c2nc(OC[C@@H]3CC4(CC4)CN3C)nc3c(F)c(-c4ccc(F)c5sc(N)c(C#N)c45)c(C(F)(F)F)cc23)[C@@H]1C [Compound 112] | D (percent of modification <10%) | 500 to 5000 | D (percent of modification <10%) |
| C=CC(=O)N1CC[C@@H](N(C)c2nc(OC[C@@]34CCCN3C[C@H](F)C4)nc3c(F)c(-c4nc(N)cc(C)c4C(F)(F)F)ccc23)[C@H]1C [Compound 115] | A (percent of modification ≥70%) | < 500 | A (percent of modification ≥70%) |
| C=CC(=O)N1CC[C@@H](N(C)c2nc(OC[C@@H]3CCCN3C)nc3c(F)c(-c4nc(N)cc(C)c4C(F)(F)F)c(C(F)(F)F)cc23)[C@H]1C [Compound 122] | B (50≤percent of modification <70%) | < 500 | A (percent of modification ≥70%) |
| C=CC(=O)N1CC[C@@H](N(CC)c2nc(OC[C@@H]3CCCN3C)nc3cc(-c4ccc(F)c5sc(N)c(C#N)c45)c(F)cc23)[C@H]1C [Compound 138] | A (percent of modification ≥70%) | < 500 | A (percent of modification ≥70%) |
| C=CC(=O)N1CC[C@@H](N(CC)c2nc(OC[C@@H]3C[C@@H](F)CN3C)nc3cc(-c4ccc(F)c5sc(N)c(C#N)c45)c(F)cc23)[C@H]1C [Compound 139] | A (percent of modification ≥70%) | < 500 | A (percent of modification ≥70%) |
| C=CC(=O)N1CC[C@@H](N(CC)c2nc(OC[C@@H]3C[C@@H](OC)CN3C)nc3cc(-c4ccc(F)c5sc(N)c(C#N)c45)c(F)cc23)[C@H]1C [Compound 140] | A (percent of modification ≥70%) | < 500 | A (percent of modification ≥70%) |
| C=CC(=O)N1CC[C@@H](N(CC)c2nc(OC[C@@H]3CCCN3C)nc3c(F)c(-c4ccc(F)c5sc(N)c(C#N)c45)ccc23)[C@H]1C [Compound 141] | A (percent of modification ≥70%) | < 500 | A (percent of modification ≥70%) |
| C=CC(=O)N1CC[C@@H](N(CC)c2nc(OC[C@@H]3C[C@@H](F)CN3C)nc3c(F)c(-c4ccc(F)c5sc(N)c(C#N)c45)ccc23)[C@H]1C [Compound 142] | A (percent of modification ≥70%) | < 500 | A (percent of modification ≥70%) |
| C=CC(=O)N1CC[C@@H](N(C)c2nc(OC[C@@H]3C[C@@H](F)CN3CC)nc3c(F)c(-c4ccc(F)c5sc(N)c(C#N)c45)c(C(F)(F)F)cc23)[C@@H]1C [Compound 144] | C (10%≤percent of modification <50%) | < 500 | C (10%≤percent of modification <50%) |
| C=CC(=O)N1CC[C@@H](N(C)c2nc(OC[C@@H]3C[C@@H](F)CN3C)nc3c(F)c(-c4nc(N)cc(C)c4C(F)(F)F)c(C(F)(F)F)cc23)[C@H]1C [Compound 145] | C (10%≤percent of modification <50%) | < 500 | A (percent of modification ≥70%) |

— patent publication US20260232666A1, “COMPOSITIONS AND METHODS FOR INHIBITION OF RAS” (TheRas, Inc., priority 2023, published 2026)
